Test results: PMC7998589, “A Radiobrominated Tyrosine Kinase Inhibitor for EGFR with L858R/T790M Mutations in Lung Carcinoma” (Pharmaceuticals, 2021)

Columns and labels:
[1] = Biodistribution of double tracers in normal mice; type: in vivo; conditions: ddY mice
Description: (§1) One month later, ^125I activity was determined.

[2] = tested on: H1975 (L858R/T790M double mutations EGFR); assay: Cellular uptake and blocking study, H1975; type: cell-based, human
Description: H1975 (1 × 10^5 cells/well), H441 (1 × 10^5 cells/well), and H3255 (2 × 10^5 cells/well) NSCLC cells were cultured in 6 well plates. Cells were incubated in medium with 10% FBS and 100 IU/mL penicillin–streptomycin at 37 °C in a humidified atmosphere with 5% CO2 for 24 h. […] The cells were dissolved by a 1.0 M NaOH aqueous solution (0.5 mL × 2). The cell lysate was transferred into a test tube. The radioactivity of ^77Br was measured by an auto well gamma counter at a 100–600 keV energy range. […] The BCA protein assay kit protocol was used to determine the protein concentration.

H1975 and H441 tumors = assay: Biodistribution of double tracers in tumor-bearing mice; type: in vivo, BALB/c nu/nu mice
Description: Six weeks old male ddY mice and four weeks old female BALB/c nu/nu mice were purchased from Japan SLC Inc. (Hamamatsu, Japan). Tumor-bearing mice were prepared by subcutaneous injection of cells suspended in 100 μL medium to the female BALB/c nu/nu mice. H1975 cells (5 × 10^6 cells) were implanted in the right shoulder, and H441 cells (3 × 10^6 cells) were implanted in the left shoulder. The tumor reached palpable size after post-inoculation 12 and 9 days for H1975 and H441, respectively.
as §1

[3] = set-up: method as in PMID 32599930; conditions: ref [9]; cited from earlier work
H441 (wild-type EGFR) = assay: WST-8 cytotoxicity assay, H441; type: cell-based; conditions: Homo sapiens, NCI-H441
Text: (§2) The data were statistically analyzed and presented as mean ± standard deviation (SD).

H1975 (EGFR L858R/T790M) = assay: WST-8 cytotoxicity assay, H1975; type: cell-based; conditions: Homo sapiens, NCI-H1975
Text: as §2

H3255 (EGFR L858R) = assay: WST-8 cytotoxicity assay, H3255; type: cell-based; conditions: Homo sapiens, NCI-H3255
Text: as §2

C=CC(=O)Nc1cc([125I])cc(Nc2nc(Nc3ccc(N4CCN(C(C)=O)CC4)cc3OC)ncc2C(F)(F)F)c1 [[^125I]ICO1686]
Biodistribution, Blood ([1]; 10 min after i.v. injection): 1.41 % ID/g
Biodistribution, Bone ([1]; 10 min after i.v. injection): 0.74 % ID/g
Biodistribution, Brain ([1]; 10 min after i.v. injection): 0.08 % ID/g
Biodistribution, Heart ([1]; 10 min after i.v. injection): 2.24 % ID/g
Biodistribution, Kidney ([1]; 10 min after i.v. injection): 9.66 % ID/g
Biodistribution, Large intestine ([1]; 10 min after i.v. injection): 0.94 % ID/g
Biodistribution, Liver ([1]; 10 min after i.v. injection): 19.21 % ID/g
Biodistribution, Lung ([1]; 10 min after i.v. injection): 3.61 % ID/g
Biodistribution, Muscle ([1]; 10 min after i.v. injection): 1.20 % ID/g
Biodistribution, Pancreas ([1]; 10 min after i.v. injection): 2.03 % ID/g
Biodistribution, Small intestine ([1]; 10 min after i.v. injection): 36.32 % ID/g
Biodistribution, Spleen ([1]; 10 min after i.v. injection): 2.73 % ID/g
Biodistribution, Stomach ([1]; 10 min after i.v. injection): 2.60 % ID/organ
Biodistribution, Blood ([1]; 1 h after i.v. injection): 0.17 % ID/g
Biodistribution, Bone ([1]; 1 h after i.v. injection): 0.16 % ID/g
Biodistribution, Brain ([1]; 1 h after i.v. injection): 0.01 % ID/g
Biodistribution, Heart ([1]; 1 h after i.v. injection): 0.30 % ID/g
Biodistribution, Kidney ([1]; 1 h after i.v. injection): 2.40 % ID/g
Biodistribution, Large intestine ([1]; 1 h after i.v. injection): 1.65 % ID/g
Biodistribution, Liver ([1]; 1 h after i.v. injection): 7.40 % ID/g
Biodistribution, Lung ([1]; 1 h after i.v. injection): 0.59 % ID/g
Biodistribution, Muscle ([1]; 1 h after i.v. injection): 0.23 % ID/g
Biodistribution, Pancreas ([1]; 1 h after i.v. injection): 0.86 % ID/g
Biodistribution, Small intestine ([1]; 1 h after i.v. injection): 40.99 % ID/g
Biodistribution, Spleen ([1]; 1 h after i.v. injection): 0.55 % ID/g
Biodistribution, Stomach ([1]; 1 h after i.v. injection): 1.64 % ID/organ
Biodistribution, Blood ([1]; 4 h after i.v. injection): 0.06 % ID/g
Biodistribution, Bone ([1]; 4 h after i.v. injection): 0.05 % ID/g
Biodistribution, Brain ([1]; 4 h after i.v. injection): 0.01 % ID/g
Biodistribution, Heart ([1]; 4 h after i.v. injection): 0.08 % ID/g
Biodistribution, Kidney ([1]; 4 h after i.v. injection): 0.75 % ID/g
Biodistribution, Large intestine ([1]; 4 h after i.v. injection): 81.54 % ID/g
Biodistribution, Liver ([1]; 4 h after i.v. injection): 6.45 % ID/g
Biodistribution, Lung ([1]; 4 h after i.v. injection): 0.16 % ID/g
Biodistribution, Muscle ([1]; 4 h after i.v. injection): 0.04 % ID/g
Biodistribution, Pancreas ([1]; 4 h after i.v. injection): 0.12 % ID/g
Biodistribution, Small intestine ([1]; 4 h after i.v. injection): 6.08 % ID/g
Biodistribution, Spleen ([1]; 4 h after i.v. injection): 0.20 % ID/g
Biodistribution, Stomach ([1]; 4 h after i.v. injection): 0.76 % ID/organ
Biodistribution, Blood ([1]; 24 h after i.v. injection): 0.13 % ID/g
Biodistribution, Bone ([1]; 24 h after i.v. injection): 0.09 % ID/g
Biodistribution, Feces ([1]; 24 h after i.v. injection): 71.54 % ID/organ
Biodistribution, Heart ([1]; 24 h after i.v. injection): 0.20 % ID/g
Biodistribution, Kidney ([1]; 24 h after i.v. injection): 0.54 % ID/g
Biodistribution, Large intestine ([1]; 24 h after i.v. injection): 0.52 % ID/g
Biodistribution, Liver ([1]; 24 h after i.v. injection): 1.40 % ID/g
Biodistribution, Lung ([1]; 24 h after i.v. injection): 0.14 % ID/g
Biodistribution, Muscle ([1]; 24 h after i.v. injection): 0.04 % ID/g
Biodistribution, Pancreas ([1]; 24 h after i.v. injection): 0.05 % ID/g
Biodistribution, Small intestine ([1]; 24 h after i.v. injection): 0.30 % ID/g
Biodistribution, Spleen ([1]; 24 h after i.v. injection): 0.13 % ID/g
Biodistribution, Stomach ([1]; 24 h after i.v. injection): 0.05 % ID/organ
Biodistribution, Urine ([1]; 24 h after i.v. injection): 1.63 % ID/organ
eliminated in feces ([1]; 24 h postinjection): up to 71%
accumulation in H1975 versus H3255 and H441 ([2]; 4 h of incubation): significantly higher
reduction of uptake upon pretreatment with CO-1686 ([2]; H1975): ~60%
accumulation of radioactivity with pretreatment with excess CO-1686 ([2]; H1975, 4 h, CO-1686 100 µM blocking): 67.7 % dose/mg protein
accumulation of radioactivity (cell uptake) ([2]; H1975, 4 h incubation): 151.3 % dose/mg protein
effect of gefitinib on uptake ([2]; H1975, gefitinib 100 µM blocking): not significantly reduced
Biodistribution, Blood (H1975 and H441 tumors; 1 h after i.v. injection): 0.50 % ID/g
Biodistribution, Bone (H1975 and H441 tumors; 1 h after i.v. injection): 0.42 % ID/g
Biodistribution, Brain (H1975 and H441 tumors; 1 h after i.v. injection): 0.04 % ID/g
Biodistribution, H441 tumor (H1975 and H441 tumors; 1 h after i.v. injection): 0.44 % ID/g
Biodistribution, H1975 tumor (H1975 and H441 tumors; 1 h after i.v. injection): 0.68 % ID/g
Biodistribution, Heart (H1975 and H441 tumors; 1 h after i.v. injection): 0.61 % ID/g
Biodistribution, Kidney (H1975 and H441 tumors; 1 h after i.v. injection): 2.64 % ID/g
Biodistribution, Large intestine (H1975 and H441 tumors; 1 h after i.v. injection): 27.65 % ID/g
Biodistribution, Liver (H1975 and H441 tumors; 1 h after i.v. injection): 30.32 % ID/g
Biodistribution, Lung (H1975 and H441 tumors; 1 h after i.v. injection): 1.62 % ID/g
Biodistribution, Muscle (H1975 and H441 tumors; 1 h after i.v. injection): 0.36 % ID/g
Biodistribution, Pancreas (H1975 and H441 tumors; 1 h after i.v. injection): 2.71 % ID/g
Biodistribution, Small intestine (H1975 and H441 tumors; 1 h after i.v. injection): 86.29 % ID/g
Biodistribution, Spleen (H1975 and H441 tumors; 1 h after i.v. injection): 1.80 % ID/g
Biodistribution, Stomach (H1975 and H441 tumors; 1 h after i.v. injection): 1.49 % ID/organ
Biodistribution, Blood (H1975 and H441 tumors; 6 h after i.v. injection): 0.17 % ID/g
Biodistribution, Bone (H1975 and H441 tumors; 6 h after i.v. injection): 0.22 % ID/g
Biodistribution, Brain (H1975 and H441 tumors; 6 h after i.v. injection): 0.02 % ID/g
Biodistribution, H441 tumor (H1975 and H441 tumors; 6 h after i.v. injection): 0.19 % ID/g
Biodistribution, H1975 tumor (H1975 and H441 tumors; 6 h after i.v. injection): 0.10 % ID/g
Biodistribution, Heart (H1975 and H441 tumors; 6 h after i.v. injection): 0.53 % ID/g
Biodistribution, Kidney (H1975 and H441 tumors; 6 h after i.v. injection): 1.05 % ID/g
Biodistribution, Large intestine (H1975 and H441 tumors; 6 h after i.v. injection): 95.22 % ID/g
Biodistribution, Liver (H1975 and H441 tumors; 6 h after i.v. injection): 10.16 % ID/g
Biodistribution, Lung (H1975 and H441 tumors; 6 h after i.v. injection): 0.37 % ID/g
Biodistribution, Muscle (H1975 and H441 tumors; 6 h after i.v. injection): 0.10 % ID/g
Biodistribution, Pancreas (H1975 and H441 tumors; 6 h after i.v. injection): 0.36 % ID/g
Biodistribution, Small intestine (H1975 and H441 tumors; 6 h after i.v. injection): 11.72 % ID/g
Biodistribution, Spleen (H1975 and H441 tumors; 6 h after i.v. injection): 0.25 % ID/g
Biodistribution, Stomach (H1975 and H441 tumors; 6 h after i.v. injection): 1.17 % ID/organ
log P [3]: 1.84 ± 0.01

C=CC(=O)Nc1cc(Br)cc(Nc2nc(Nc3ccc(N4CCN(C(C)=O)CC4)cc3OC)ncc2C(F)(F)F)c1 [compound 9, N-(3-{[2-({4-[4-acetylpiperazin-1-yl]-2-methoxyphenyl}amino)-5-(trifluoromethyl)pyrimidin-4-yl]amino}-5-bromophenyl)acrylamide]
IC50 (H441 (wild-type EGFR)): 0.64 ± 0.04 µM
IC50 (H1975 (EGFR L858R/T790M)): 0.18 ± 0.06 µM
IC50 (H3255 (EGFR L858R)): 0.2 ± 0.01 µM
